Test results as given in ChEMBL document CHEMBL2390858, “Design, synthesis and anti-tuberculosis activity of 1-adamantyl-3-heteroaryl ureas with improved in vitro pharmacokinetic properties” (Bioorg Med Chem, 2013).
Values after ≈ are worked out from the molar mass of the structure shown.

Legend:
[1] = biological target: T1, Bifunctional epoxide hydrolase 2 (Homo sapiens, UniProt P34913)
T1 sequence (P34913 whole entry): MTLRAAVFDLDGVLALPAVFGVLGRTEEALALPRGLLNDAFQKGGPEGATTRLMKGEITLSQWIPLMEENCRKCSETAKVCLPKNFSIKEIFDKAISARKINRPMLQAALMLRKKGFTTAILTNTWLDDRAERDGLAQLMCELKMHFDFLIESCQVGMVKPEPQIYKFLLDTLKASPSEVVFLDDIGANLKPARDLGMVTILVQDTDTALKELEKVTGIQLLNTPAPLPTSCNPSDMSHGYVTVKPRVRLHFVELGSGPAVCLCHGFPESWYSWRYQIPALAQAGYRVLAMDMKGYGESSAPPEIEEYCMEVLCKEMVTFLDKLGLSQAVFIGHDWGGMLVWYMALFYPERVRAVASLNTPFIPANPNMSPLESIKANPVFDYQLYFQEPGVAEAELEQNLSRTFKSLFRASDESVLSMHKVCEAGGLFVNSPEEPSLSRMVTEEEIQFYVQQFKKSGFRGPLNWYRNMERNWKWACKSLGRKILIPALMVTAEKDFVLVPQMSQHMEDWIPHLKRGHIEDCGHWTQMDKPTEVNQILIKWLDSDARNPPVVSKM

[2] = buffer, 18 h, pH 7.4
Pseudomonas aeruginosa = assay: microbe, parasite or virus in culture
Proteus vulgaris = assay: microbe, parasite or virus in culture
Proteus mirabilis = assay: microbe, parasite or virus in culture
Klebsiella pneumoniae = assay: microbe, parasite or virus in culture
Escherichia coli = assay: microbe, parasite or virus in culture; conditions: K-12
Acinetobacter = assay: microbe, parasite or virus in culture
Streptococcus pneumoniae = assay: microbe, parasite or virus in culture
Streptococcus pyogenes = assay: microbe, parasite or virus in culture
Bacillus anthracis = assay: microbe, parasite or virus in culture; conditions: Sterne
Burkholderia cepacia = assay: microbe, parasite or virus in culture
Bacillus subtilis = assay: microbe, parasite or virus in culture
Staphylococcus aureus [3] = assay: microbe, parasite or virus in culture; conditions: NRS70
Staphylococcus aureus [4] = assay: microbe, parasite or virus in culture; conditions: ATCC 29213
Enterococcus faecalis = assay: microbe, parasite or virus in culture
[5] = test system: Mycobacterium tuberculosis; assay: microbe, parasite or virus in culture; conditions: H37Rv, 168 h

Row | Structure (SMILES) | IC50 [1] [nM] | solubility [2] [µg/mL] | MIC (Pseudomonas aeruginosa) [µg/mL] | MIC (Proteus vulgaris) [µg/mL] | MIC (Proteus mirabilis) [µg/mL] | MIC (Klebsiella pneumoniae) [µg/mL] | MIC (Escherichia coli) [µg/mL] | MIC (Acinetobacter) [µg/mL] | MIC (Streptococcus pneumoniae) [µg/mL] | MIC (Streptococcus pyogenes) [µg/mL] | MIC (Bacillus anthracis) [µg/mL] | MIC (Burkholderia cepacia) [µg/mL] | MIC (Bacillus subtilis) [µg/mL] | MIC (Staphylococcus aureus [3]) [µg/mL] | MIC (Staphylococcus aureus [4]) [µg/mL] | MIC (Enterococcus faecalis) [µg/mL] | MIC [5] [µg/mL]
1 | O=C(Nc1ccccn1)NC12CC3CC(CC(C3)C1)C2 | 1500 | 1.4 (≈ 5.16 µM) | > 200 | > 200 | > 200 | > 200 | > 200 | > 200 | > 200 | > 200 | > 200 |  |  |  |  |  | 
2 | Cc1noc(NC(=O)NC23CC4CC(CC(C4)C2)C3)c1C | 20 | 5.7 (≈ 19.7 µM) | > 200 | > 200 | > 200 | > 200 | > 200 |  | > 200 | > 200 |  | > 200 | > 200 | > 200 | > 200 | > 200 | 100 (≈ 346 µM)
3 | Cc1nnc(NC(=O)NC23CC4CC(CC(C4)C2)C3)o1 | 595 | 9.77 (≈ 35.4 µM) | > 200 | > 200 | > 200 | > 200 | > 200 | > 200 | > 200 | > 200 | > 200 | > 200 | > 200 | > 200 | > 200 | > 200 | 25 (≈ 90.5 µM)
4 | O=C(Nc1nnc(C2CC2)o1)NC12CC3CC(CC(C3)C1)C2 | 503 | 38.3 (≈ 127 µM) | > 200 | > 200 | > 200 | > 200 | > 200 | > 200 | > 200 | > 200 | 50 (≈ 165 µM) | > 200 | 100 (≈ 331 µM) | > 200 | > 200 | > 200 | 12.5 (≈ 41.3 µM)
5 | O=C(Nc1nnc(C2CCC2)o1)NC12CC3CC(CC(C3)C1)C2 | 241 | 10.5 (≈ 33.2 µM) | > 200 | > 200 | > 200 | > 200 | > 200 | > 200 | 100 (≈ 316 µM) | 100 (≈ 316 µM) | 25 (≈ 79 µM) | > 200 | 50 (≈ 158 µM) | 50 (≈ 158 µM) | 50 (≈ 158 µM) | 100 (≈ 316 µM) | 12.5 (≈ 39.5 µM)
6 | O=C(Nc1nnc(-c2cccs2)o1)NC12CC3CC(CC(C3)C1)C2 | 1570 | 2.2 (≈ 6.39 µM) | > 200 | > 200 | > 200 | > 200 | > 200 | > 200 | > 200 | > 200 | > 200 | > 200 | > 200 | > 200 | > 200 |  | 100 (≈ 290 µM)
7 | CCn1ccc(NC(=O)NC23CC4CC(CC(C4)C2)C3)n1 | 884 | 10.5 (≈ 36.4 µM) | > 200 | > 200 | > 200 | > 200 | > 200 | > 200 | 200 (≈ 693 µM) | 0.78 (≈ 2.7 µM) | 100 (≈ 347 µM) | > 200 | 200 (≈ 693 µM) | 200 (≈ 693 µM) | > 200 | > 200 | 25 (≈ 86.7 µM)
8 | CCn1nc(NC(=O)NC23CC4CC(CC(C4)C2)C3)cc1C | 2510 | 13.2 (≈ 43.6 µM) | > 200 | > 200 | > 200 | > 200 | > 200 | > 200 | > 200 | > 200 | > 200 | > 200 | > 200 | > 200 | > 200 | > 200 | 12.5 (≈ 41.3 µM)
9 | Cn1cc(NC(=O)NC23CC4CC(CC(C4)C2)C3)cn1 | 488 | 41.1 (≈ 150 µM) | > 200 | > 200 | > 200 | > 200 | > 200 | > 200 | > 200 | > 200 | > 200 | > 200 | > 200 | > 200 | > 200 | > 200 | 50 (≈ 182 µM)
10 | O=C(Nc1ncco1)NC1C2CC3CC(C2)CC1C3 (configuration not stated) | 46 | 14.9 (≈ 57 µM) | > 200 | > 200 | > 200 | > 200 | > 200 | > 200 | > 200 | > 200 | > 200 | 6.25 (≈ 23.9 µM) | > 200 | 200 (≈ 765 µM) | > 200 | > 200 | 12.5 (≈ 47.8 µM)
11 | O=C(Nc1ccc(S(=O)(=O)Nc2ccc(Cl)nn2)cc1)NC12CC3CC(CC(C3)C1)C2 | 19 | 20.7 (≈ 44.8 µM) | > 200 | > 200 | 100 (≈ 216 µM) | > 200 | > 200 | > 200 | 100 (≈ 216 µM) | > 200 | 1.56 (≈ 3.38 µM) | 100 (≈ 216 µM) | > 200 |  | 50 (≈ 108 µM) | 100 (≈ 216 µM) | 
12 | Cc1onc(NC(=O)NC23CC4CC(CC(C4)C2)C3)c1Br | 0.8 | 0.1 (≈ 0.282 µM) | > 200 | > 200 | > 200 | > 200 | 50 (≈ 141 µM) | > 200 | > 200 | > 200 | > 200 |  | > 200 | 200 (≈ 565 µM) | 50 (≈ 141 µM) |  | 100 (≈ 282 µM)
13 | Cc1cc(CNC(=O)NC23CC4CC(CC(C4)C2)C3)no1 | 1550 | 3 (≈ 10.4 µM) | > 200 | > 200 | > 200 | > 200 | > 200 | > 200 | > 200 | > 200 | > 200 | > 200 | > 200 | > 200 | > 200 | > 200 | > 50
14 | Cc1cc(NC(=O)NC23CC4CC(CC(C4)C2)C3)on1 | 117 | 5.5 (≈ 20 µM) | > 200 | > 200 | > 200 | > 200 | 200 (≈ 726 µM) | > 200 | > 200 | > 200 | > 200 | 100 (≈ 363 µM) | > 200 | > 200 | 200 (≈ 726 µM) | 100 (≈ 363 µM) | 12.5 (≈ 45.4 µM)
15 | Cc1noc(NC(=O)NC23CC4CC(CC(C4)C2)C3)c1Cl | 0.5 | 1.5 (≈ 4.84 µM) | > 200 | > 200 | > 200 | > 200 | > 200 |  | > 200 | > 200 |  | > 200 | > 200 | > 200 | > 200 | > 200 | 100 (≈ 323 µM)
16 | Cc1noc(NC(=O)NC23CC4CC(CC(C4)C2)C3)c1C#N | 25 | 1.2 (≈ 4 µM) | > 200 | > 200 | > 200 | > 200 | > 200 | > 200 | > 200 | > 200 | > 200 | 200 (≈ 666 µM) | > 200 | > 200 | > 200 | 200 (≈ 666 µM) | 100 (≈ 333 µM)
